PMC7287882, “Dual miRNases for Triple Incision of miRNA Target: Design Concept and Catalytic Performance” (Molecules, 2020)

Experiments:
miR-21_1 = assay: Ribonuclease activity assay, cleavage of modified miR-21_1; assay type: biochemical; settings: miRNA 1 µM, DC 20 µM, 37 °C
Method: The ribonuclease activity of DCs was studied under two different buffer conditions: buffer (1) contained 50 mM Tris-HCl, pH 7.0, 200 mM KCl, 1 mM EDTA, which imitates intracellular conditions (e.g., pH and potassium ions concentration) and was used in a number of studies previously; and buffer (2) contained 20 mM Tris-HCl, pH 7.8, 40 mM KCl, 8 mM MgCl2, 1 mM DTT, 0.02 mg/mL BSA, which is recommended for in vitro reactions with RNase H (Figure 3 and Figure 4).
Despite the high binding affinity of all DCs to their matching miRNA targets, miR-21 was not cleaved by the corresponding Dual conjugate (Figure 3d). The most probable reason for this was the absence of the pyrimidine-A sites sensitive towards cleavage by this type of conjugates within the single-stranded “gap” formed upon binding to conjugate. In order to verify this hypothesis, we tested the cleavage of the modified miR-21 sequence (miRNA-21_1) containing 2 substitutions in the gap region (AGACU → AUACA) to generate C-A and U-A bonds. Such replacement, indeed, led to a noticeable cleavage of the miR-21_1 target with miR-21-targeting DC at the introduced U11-A12 and C13-A14 sites (Figure 3e) with the cleavage efficiency reaching 18% (Figure 3f, Table S2).
The reaction mixture (10 µL) contained 800 cpm (Cherenkov’s counting) of [^32P]-miRNA, 1 μM unlabeled miRNA, one of the conjugates at a concentration 10 or 20 μM and one of the buffers: 50 mM Tris-HCl, pH 7.0, 200 mM KCl, 1 mM EDTA–buffer (1) or 20 mM Tris-HCl, pH 7.8, 40 mM KCl, 8 mM MgCl2, 1 mM DTT, 0.02 mg/mL BSA–buffer (2). The mixture was incubated at 37 °C for 0–72 h and quenched by precipitation of RNA with 2% LiClO4 in acetone (90 µL). RNA was collected by centrifugation and dissolved in loading buffer (8 M urea, 0.025% bromophenol blue, 0.025% xylene cyanol). RNA cleavage products were analyzed in 18% PAAG/8M urea using TBE (100 mM Tris-borate, pH 8.3, 2 mM EDTA) as running buffer. To identify cleavage sites, an imidazole and T1-ladders produced by partial RNA cleavage with 2 M imidazole buffer (pH 7.0) and with RNase T1 [68], respectively, were run in parallel. To obtain quantitative data, gels were dried and analyzed using Molecular Imager FX. The total extent of RNA cleavage and the extent of RNA cleavage at each individual site were determined by using Quantity One software v.4.1 (Bio-Rad, Hercules, CA, USA).

miR-155 = assay: Gel-retardation assay, hybridization with miR-155; assay type: binding; settings: 37 °C, 45 min, mean of 3
Text: We carried out a comparative analysis of the hybridization properties of the developed DCs with the corresponding SCs, which were the products of the first stage of the DCs synthesis. As discussed above, each SC consisted of the corresponding oligonucleotide A, which was complementary to the 5′-region of the matching miRNA target, and the catalytic peptide [LRLRG]2, attached to the 5′-end of this oligonucleotide via a thiohexyl linker (linker 2). […] Indeed, the level of binding of DCs to their miRNA targets reached 96, 90, 75, 55% at equimolar concentration (1 μM), and 99, 96, 92 and 69% at 5-fold excess of DCs over miR-17, miR-18a, miR-21 and miR-155, respectively (Figure 2). […]
The reaction mixture (4 µL) containing 50 mM Tris-HCl, pH 7.0, 200 mM KCl and 1 mM EDTA, 100 cpm (Cherenkov’s counting) of [^32P]-miRNA, 1 μM unlabeled miRNA, a conjugate at a concentration ranging from 0.1 to 10 μM was incubated at 37 °C for 45 min and quenched by adding of a loading buffer (20% ficoll, 0.025% bromophenol blue, 0.025% xylene cyanol). […] Formation of the complex miRNA/conjugate was analyzed by electrophoresis in 15% native PAAG at 4 °C. The gels were analyzed using Molecular Imager FX. The extent of binding of conjugate to miRNA was determined as a ratio of radioactivity measured in the complex to the total radioactivity applied onto the gel lane.

Substance: TCAACATC–linker 1–[GRLRL]2–linker 2–GATAAGCTA [miRNA-21-DC, Dual oligonucleotide-peptide conjugate targeted to miR-21: catalytic peptide [LRLRG]2 between two 2-aminoadenine-containing oligodeoxyribonucleotides]
- Total Cleavage (miR-21_1; buffer (1) 50 mM Tris-HCl pH 7.0, 200 mM KCl, 1 mM EDTA, 2 h): 0,7%
- Total Cleavage (miR-21_1; buffer (1) 50 mM Tris-HCl pH 7.0, 200 mM KCl, 1 mM EDTA, 24 h): 10%
- Total Cleavage (miR-21_1; buffer (1) 50 mM Tris-HCl pH 7.0, 200 mM KCl, 1 mM EDTA, 48 h): 18%
- Total Cleavage (miR-21_1; buffer (2) 20 mM Tris-HCl pH 7.8, 40 mM KCl, 8 mM MgCl2, 1 mM DTT, 0.02 mg/mL BSA, 6 h): 14%
- Total Cleavage (miR-21_1; buffer (2) 20 mM Tris-HCl pH 7.8, 40 mM KCl, 8 mM MgCl2, 1 mM DTT, 0.02 mg/mL BSA, 24 h): 48%
- Total Cleavage (miR-21_1; buffer (2) 20 mM Tris-HCl pH 7.8, 40 mM KCl, 8 mM MgCl2, 1 mM DTT, 0.02 mg/mL BSA, 48 h): 63%
- rise of Kobs in buffer (2) compared to Kobs in buffer (1) (miR-21_1): 3 fold

Substance: ACCCCTAT–linker 1–[GRLRL]2–linker 2–TTAGCATTAA [miRNA-155-DC, Dual oligonucleotide-peptide conjugate targeted to miR-155: catalytic peptide [LRLRG]2 between two 2-aminoadenine-containing oligodeoxyribonucleotides]
- level of binding of DC to miRNA target (miR-155; 5-fold excess of DC over miRNA (1 µM), same buffer): 69%
- level of binding of DC to miRNA target (miR-155; equimolar, DC 1 µM : miRNA 1 µM, 50 mM Tris-HCl pH 7.0, 200 mM KCl, 1 mM EDTA): 55%
